# Laboratory results taken from US9896440B2, “Aryl substituted heterocyclyl sulfones” (GRÜNENTHAL GMBH, priority 2014, dated 2018).
# Target: T1, Human CaV2.2 channels (Homo sapiens, UniProt Q00975)
# T1 construct: expressed in transfected cells; Kir2.3 also stably co-expressed
# Assay: Fluorescence assay for CaV2.2 channels using potassium depolarization to induce channel opening (FLIPR, Fluo 4)
# Assay type: cell-based
# Conditions: 3 μM test compound, 30 mM KCl assay buffer (inactivated channel state), HEK293 cells
# Summary of the method: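 HEK293 cells stably co-expressing human CaV2.2 with α2δ and β subunits plus Kir2.3, Fluo-4 loaded; compounds preincubated 15 min at 25 °C in 1 mM or 30 mM KCl buffer (inactivated state), pH 7.4. Depolarized by KCl addition; baseline-normalized peak fluorescence (ex 480/em 535 nm) gave inhibition.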
# T1 sequence (Q00975 whole entry): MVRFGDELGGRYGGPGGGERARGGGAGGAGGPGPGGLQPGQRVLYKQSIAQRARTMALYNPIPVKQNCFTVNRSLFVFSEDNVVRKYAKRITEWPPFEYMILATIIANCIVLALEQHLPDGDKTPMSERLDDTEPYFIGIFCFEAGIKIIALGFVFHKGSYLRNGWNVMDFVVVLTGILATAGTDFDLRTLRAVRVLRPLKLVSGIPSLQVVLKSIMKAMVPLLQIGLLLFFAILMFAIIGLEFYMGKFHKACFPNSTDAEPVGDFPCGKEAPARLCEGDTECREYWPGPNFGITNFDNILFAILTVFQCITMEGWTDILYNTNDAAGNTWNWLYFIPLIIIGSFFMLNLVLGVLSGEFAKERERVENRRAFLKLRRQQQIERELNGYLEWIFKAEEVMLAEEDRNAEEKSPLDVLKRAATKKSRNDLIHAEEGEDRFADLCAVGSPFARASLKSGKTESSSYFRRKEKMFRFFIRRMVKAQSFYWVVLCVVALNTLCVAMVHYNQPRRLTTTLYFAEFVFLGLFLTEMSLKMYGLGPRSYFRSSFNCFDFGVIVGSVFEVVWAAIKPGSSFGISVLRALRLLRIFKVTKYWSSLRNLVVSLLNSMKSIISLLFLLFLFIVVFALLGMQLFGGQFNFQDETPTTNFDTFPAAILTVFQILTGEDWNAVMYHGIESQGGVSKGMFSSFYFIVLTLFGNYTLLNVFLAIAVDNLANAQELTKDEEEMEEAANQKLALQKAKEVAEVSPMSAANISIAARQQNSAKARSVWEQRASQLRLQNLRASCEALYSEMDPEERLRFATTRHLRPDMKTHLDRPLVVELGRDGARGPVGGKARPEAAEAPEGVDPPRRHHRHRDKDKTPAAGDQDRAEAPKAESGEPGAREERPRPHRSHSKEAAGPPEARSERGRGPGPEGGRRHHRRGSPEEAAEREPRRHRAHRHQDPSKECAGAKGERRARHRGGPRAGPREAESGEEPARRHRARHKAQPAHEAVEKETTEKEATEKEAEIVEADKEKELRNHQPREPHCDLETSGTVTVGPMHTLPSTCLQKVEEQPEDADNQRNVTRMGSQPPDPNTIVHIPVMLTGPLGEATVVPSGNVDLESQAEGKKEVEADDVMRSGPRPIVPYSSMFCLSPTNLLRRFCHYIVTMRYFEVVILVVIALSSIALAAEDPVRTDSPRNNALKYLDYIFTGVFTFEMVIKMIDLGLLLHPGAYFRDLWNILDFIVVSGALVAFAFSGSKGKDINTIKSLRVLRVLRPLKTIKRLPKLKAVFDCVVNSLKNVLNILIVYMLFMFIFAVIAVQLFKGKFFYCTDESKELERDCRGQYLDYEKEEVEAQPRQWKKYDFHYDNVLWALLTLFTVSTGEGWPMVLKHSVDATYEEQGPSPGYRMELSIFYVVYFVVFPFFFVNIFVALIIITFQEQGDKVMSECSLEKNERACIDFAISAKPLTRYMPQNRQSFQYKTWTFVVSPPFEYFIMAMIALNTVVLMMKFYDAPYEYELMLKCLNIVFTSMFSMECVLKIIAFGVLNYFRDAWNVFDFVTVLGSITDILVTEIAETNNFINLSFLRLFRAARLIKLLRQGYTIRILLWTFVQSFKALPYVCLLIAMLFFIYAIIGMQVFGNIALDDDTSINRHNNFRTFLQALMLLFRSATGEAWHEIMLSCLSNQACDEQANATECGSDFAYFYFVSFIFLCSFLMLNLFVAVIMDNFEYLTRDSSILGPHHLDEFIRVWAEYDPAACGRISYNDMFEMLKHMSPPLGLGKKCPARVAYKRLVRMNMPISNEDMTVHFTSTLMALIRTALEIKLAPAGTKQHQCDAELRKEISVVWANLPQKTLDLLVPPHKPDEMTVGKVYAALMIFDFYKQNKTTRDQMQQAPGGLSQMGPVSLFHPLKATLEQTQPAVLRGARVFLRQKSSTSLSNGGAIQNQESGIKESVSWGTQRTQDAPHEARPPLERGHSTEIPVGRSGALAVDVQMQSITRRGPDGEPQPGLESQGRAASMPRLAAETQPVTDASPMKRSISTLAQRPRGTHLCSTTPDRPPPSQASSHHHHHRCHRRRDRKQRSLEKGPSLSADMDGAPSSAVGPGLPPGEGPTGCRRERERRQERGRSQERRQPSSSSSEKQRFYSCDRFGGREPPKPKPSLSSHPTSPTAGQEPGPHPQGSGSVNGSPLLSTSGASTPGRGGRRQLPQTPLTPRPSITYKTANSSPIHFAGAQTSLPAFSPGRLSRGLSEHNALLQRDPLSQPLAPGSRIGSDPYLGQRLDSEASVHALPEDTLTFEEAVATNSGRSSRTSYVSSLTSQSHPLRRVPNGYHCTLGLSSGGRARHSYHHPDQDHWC
row,SMILES,Activity Category: %-Inhib (CaV2.2) @3 μM @30 mM KCl
1,"CC1(S(=O)(=O)c2cccc(C(F)(F)F)c2)CCOC(c2ccc(Cl)cc2)C1 (stereo not shown) [SC-311, 2-(4-Chlorophenyl)-4-methyl-4-[[3-(trifluoromethyl)phenyl]sulfonyl]-tetrahydro-pyran]",A (%-Inhibition >95%)
2,"CC1(S(=O)(=O)c2cccc(C(F)(F)F)c2)CCOC(c2ccc(Cl)cc2)C1 (stereo not shown) [SC-312, 2-(4-Chlorophenyl)-4-methyl-4-[[3-(trifluoromethyl)phenyl]sulfonyl]-tetrahydro-pyran]",B (%-Inhibition >75% up to ≦95%)
3,"O=S(=O)(c1cccc(C(F)(F)F)c1)C1CCOC(c2ccc(Cl)cc2)C1 (stereo not shown) [SC-402, 2-(4-Chlorophenyl)-4-[[3-(trifluoromethyl)phenyl]sulfonyl]-tetrahydro-pyran]",A (%-Inhibition >95%)
4,"CC1(S(=O)(=O)c2cccc(C(F)F)c2)CCOC(c2ccc(S(C)(=O)=O)cc2F)C1 (stereo not shown) [SC-510, 4-[[3-(Difluoro-methyl)-phenyl]sulfonyl]-2-(2-fluoro-4-methylsulfonyl-phenyl)-4-methyl-tetrahydro-pyran]",A (%-Inhibition >95%)
5,"CC1(S(=O)(=O)c2cccc(C3CC3)c2)CCOC(c2ccc(S(C)(=O)=O)cc2F)C1 (stereo not shown) [SC-513, 4-[(3-Cyclopropyl-phenyl)sulfonyl]-2-(2-fluoro-4-methylsulfonyl-phenyl)-4-methyl-tetrahydro-pyran]",A (%-Inhibition >95%)
6,"CC1(S(=O)(=O)c2cccc(OC(F)F)c2)CCOC(c2ccc(S(C)(=O)=O)cc2F)C1 (stereo not shown) [SC-516, 4-[[3-(Difluoro-methoxy)-phenyl]sulfonyl]-2-(2-fluoro-4-methylsulfonyl-phenyl)-4-methyl-tetrahydro-pyran]",C (%-Inhibition >40% up to ≦75%)
7,"CC1(S(=O)(=O)c2cccc(OC(F)F)c2)CCOC(c2ccc(S(C)(=O)=O)cc2F)C1 (stereo not shown) [SC-517, 4-[[3-(Difluoro-methoxy)-phenyl]sulfonyl]-2-(2-fluoro-4-methylsulfonyl-phenyl)-4-methyl-tetrahydro-pyran]",B (%-Inhibition >75% up to ≦95%)
8,"CC1(S(=O)(=O)c2cc(F)cc(C(F)(F)F)c2)CCOC(c2ccc(S(C)(=O)=O)cc2F)C1 (stereo not shown) [SC-519, 2-(2-Fluoro-4-methylsulfonyl-phenyl)-4-[[3-fluoro-5-(trifluoromethyl)-phenyl]sulfonyl]-4-methyl-tetrahydro-pyran]",A (%-Inhibition >95%)

# Same assay, conditions: HEK293, 3 μM test compound, 30 mM KCl assay buffer (inactivated channel state), HEK293 cells; read-out: Activity Category: %-Inhib (CaV2.2) @3 μM @30 mM KCl
row,SMILES,inhibition at 3 µM [%]
1,"CC1(S(=O)(=O)c2cccc(OC(F)(F)F)c2)CCOC(c2ccc(Cl)cc2)C1 (stereo not shown) [SC-313, 2-(4-Chlorophenyl)-4-methyl-4-[[3-(trifluoromethyloxy)-phenyl]sulfonyl]-tetrahydro-pyran]",> 95
2,"O=S(=O)(c1cccc(C(F)(F)F)c1)C1CCOC(c2ccc(Cl)cc2)C1 (stereo not shown) [SC-401, 2-(4-Chlorophenyl)-4-[[3-(trifluoromethyl)phenyl]sulfonyl]-tetrahydro-pyran]",75 to 95
3,"CC(C)Oc1cccc(S(=O)(=O)C2(C)CCOC(c3ccc(S(C)(=O)=O)cc3F)C2)c1 (stereo not shown) [SC-500, 2-(2-Fluoro-4-methylsulfonyl-phenyl)-4-[(3-isopropoxy-phenyl)sulfonyl]-4-methyl-tetrahydro-pyran]",75 to 95
4,"CC1(S(=O)(=O)c2cccc(OC(F)(F)F)c2)CCOC(c2ccc(S(C)(=O)=O)cc2F)C1 (stereo not shown) [SC-502, 2-(2-Fluoro-4-methylsulfonyl-phenyl)-4-methyl-4-[[3-(trifluoromethyloxy)-phenyl]sulfonyl]-tetrahydro-pyran]",> 95
5,"CC(C)c1cccc(S(=O)(=O)C2(C)CCOC(c3ccc(S(C)(=O)=O)cc3F)C2)c1 (stereo not shown) [SC-506, 2-(2-Fluoro-4-methylsulfonyl-phenyl)-4-[(3-isopropyl-phenyl)sulfonyl]-4-methyl-tetrahydro-pyran]",> 95
6,"CC1(S(=O)(=O)c2cccc(C(F)F)c2)CCOC(c2ccc(S(C)(=O)=O)cc2F)C1 (stereo not shown) [SC-509, 4-[[3-(Difluoro-methyl)-phenyl]sulfonyl]-2-(2-fluoro-4-methylsulfonyl-phenyl)-4-methyl-tetrahydro-pyran]",75 to 95
7,"CC1(S(=O)(=O)c2cccc(C3CC3)c2)CCOC(c2ccc(S(C)(=O)=O)cc2F)C1 (stereo not shown) [SC-512, 4-[(3-Cyclopropyl-phenyl)sulfonyl]-2-(2-fluoro-4-methylsulfonyl-phenyl)-4-methyl-tetrahydro-pyran]",75 to 95
8,"CC1(S(=O)(=O)c2cc(F)cc(C(F)(F)F)c2)CCOC(c2ccc(S(C)(=O)=O)cc2F)C1 (stereo not shown) [SC-518, 2-(2-Fluoro-4-methylsulfonyl-phenyl)-4-[[3-fluoro-5-(trifluoromethyl)-phenyl]sulfonyl]-4-methyl-tetrahydro-pyran]",75 to 95
